Assay results from patent US20100168133A1, “USE OF SUBSTITUTED QUINOLINE DERIVATIVES FOR THE TREATMENT OF DRUG RESISTANT MYCOBACTERIAL DISEASES” (priority 2004, published 2010).
≈ marks a conversion by molar mass, not a printed value. Like-named read-outs stand apart in the source and are kept apart here.

Columns and labels:
M. avium = format: cell-based; details: M. avium resistant to fluoroquinolones, mutation Ala83Val (Table 9)
M. fortuitum = assay: In-vitro MIC in solid medium against fluoroquinolone-resistant clinical isolates; format: cell-based; details: Mycolicibacterium fortuitum, no mutation indicated, Table 10 1st strain
[1] = tested on: M. tuberculosis H37Rv strain; format: in vivo, Swiss female mice
[2] = tested on: M. tuberculosis strain H37Rv; assay: In vivo susceptibility of M. tuberculosis to compound 12 in combination with other antimycobacterial agents, lung CFU (Tables 13, 14); design: species or system Swiss mice; details: for CFU 1 month (lung) / CFU 2 months (lung): once-a-day group (gavage 5 days/week from day 14), D0 = 7.23; for CFU 1 month (lung): lung CFU after 1 month of treatment; for CFU 2 months (lung): lung CFU after 2 months of treatment; for Decrease 1 mo vs D0 (lung CFU) / Decrease 2 mo vs D0 (lung CFU) / % positive mice 2nd month: once-a-day group; for Decrease 1 mo vs D0 (lung CFU): 1 month of treatment versus D0 (7.23); for Decrease 2 mo vs D0 (lung CFU): 2 months of treatment versus D0 (7.23); for % positive mice 2nd month: culture-positive mice / mice examined after 2 months; for % positive mice / lung CFU*: once-a-week group, after 2 months of treatment; for lung CFU*: by gavage, D0 value 7.23
[3] = […], treatment from day 14, five times weekly, title: 2 months (footnote: four weeks, sacrifice day 42)

SMILES	MIC (M. avium) [mg/L]	MIC (M. fortuitum) [mg/L]	Mean CFU (log10) per Lung [1, 3] [log10]	Mean CFU (log10) per Spleen [1, 3] [log10]	Spleen weight (mean) [1, 3] [mg]	CFU 1 month (lung) [2]	CFU 2 months (lung) [2]	Decrease 1 mo vs D0 (lung CFU) [2]	Decrease 2 mo vs D0 (lung CFU) [2]	% positive mice 2nd month [2]	% positive mice [2]	lung CFU* [2]	Mean CFU (log10) per Lung ([1]; mouse, in vivo) [log10]	Mean CFU (log10) per Spleen ([1]; mouse, in vivo) [log10]	Spleen weight (mean) ([1]; mouse, in vivo) [mg]
COc1nc2ccc(Br)cc2cc1[C@@H](c1ccccc1)[C@@](O)(CCN(C)C)c1cccc2ccccc12 [Compound 12, (αS,βR)-6-bromo-α-[2-(dimethylamino)ethyl]-2-methoxy-α-1-naphthalenyl-β-phenyl-3-quinolineethanol]	0.007 (≈ 0.0126 µM)	0.01 (≈ 0.018 µM)	0.22 ± 0.32	1.24 ± 0.50	248 ± 47	4.14	2.28	−3.09	−4.95	8/10	9/9	1.99 +/− 0.75	–	–	–
COc1c(N2C[C@@H]3CCCN[C@@H]3C2)c(F)cc2c(=O)c(C(=O)O)cn(C3CC3)c12 [M, moxifloxacin]	–	–	2.89 ± 0.57	3.53 ± 0.34	400 ± 99	5.51	4.3	−1.72	−2.93	10/10	7/7	6.44 +/− 0.5	–	–	–
CC1COc2c(N3CCN(C)CC3)c(F)cc3c(=O)c(C(=O)O)cn1c23 (stereo not drawn) [Ofloxacin, ofloxacin]	–	1 (≈ 2.77 µM)	–	–	–	–	–	–	–	–	–	–	–	–	–
CO[C@H]1/C=C/O[C@@]2(C)Oc3c(C)c(O)c4c(O)c(c(/C=N/N5CCN(C)CC5)c(O)c4c3C2=O)NC(=O)/C(C)=C\C=C\[C@H](C)[C@H](O)[C@@H](C)[C@@H](O)[C@@H](C)[C@H](OC(C)=O)[C@@H]1C [Rifampin, rifampin]	16 (≈ 19.4 µM)	128 (≈ 156 µM)	–	–	–	6.01	4.07	−1.22	−3.16	10/10	–	–	1.89 ± 0.50	2.75 ± 0.34	391 ± 70
